Assay [1] concerns the target T1, High affinity choline transporter 1 (Homo sapiens, UniProt Q9GZV3).
T1 sequence (Q9GZV3 whole entry): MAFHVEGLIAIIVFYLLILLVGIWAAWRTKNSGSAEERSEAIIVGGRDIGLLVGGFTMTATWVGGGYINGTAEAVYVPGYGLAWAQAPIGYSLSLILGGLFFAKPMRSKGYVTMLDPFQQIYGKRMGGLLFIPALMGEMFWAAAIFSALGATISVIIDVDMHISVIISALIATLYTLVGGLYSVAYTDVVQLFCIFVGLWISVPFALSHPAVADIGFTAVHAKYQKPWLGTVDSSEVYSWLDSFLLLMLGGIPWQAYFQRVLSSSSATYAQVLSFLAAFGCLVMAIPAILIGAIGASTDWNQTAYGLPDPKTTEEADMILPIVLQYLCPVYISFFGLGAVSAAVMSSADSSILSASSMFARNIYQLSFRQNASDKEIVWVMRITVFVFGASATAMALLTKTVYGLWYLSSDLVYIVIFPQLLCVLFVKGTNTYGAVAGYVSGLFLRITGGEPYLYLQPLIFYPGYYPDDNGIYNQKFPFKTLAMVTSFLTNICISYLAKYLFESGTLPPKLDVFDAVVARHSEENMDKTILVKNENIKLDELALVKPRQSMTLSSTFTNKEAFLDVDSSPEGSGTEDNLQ
In words: human choline transporter blockers, potency – cell-based, 5-point CRC, membrane potential dye, dose response (AID 504840). The assay is classed as functional.

The nature of assay [2]: non-specific 3'UTR reporter inhibition in Clone20-Shn3RL – cell-based, Renilla luciferase, cherry-picked, counter-screen for Shn3 inhibitor project, dose response (AID 624133). The format is functional.
Assay [3] in a line: microbe, parasite or virus in culture. To be noted: Mycobacterium tuberculosis. The format is functional.
Assay [4] is described as follows: HepG2 cell cytotoxicity, dose response, cytotoxicity control for non-replicating M. tuberculosis project (AID 489018). The assay is classed as functional. To be noted: Mycobacterium tuberculosis.
Assay [5] can be described thus: Vero E6 cell cytotoxicity, dose response, cytotoxicity control for non-replicating M. tuberculosis project, secondary assay (AID 492998). To be noted: Vero C1008. The assay is classed as functional, VeroE6.
The test system of another assay is A-375. Briefly: proliferation inhibition in MITF-low A375 cells – cell-based, cherry-pick samples, set 2, counter-screen for MITF modulator project, dose response (AID 540335). The assay is classed as functional. The following applies: Homo sapiens. A general note: Counterscreens check selectivity or assay interference.
The nature of assay [6]: reduction of Shn3 3'UTR-driven luciferase in osteoblasts – cell-based, Clone20 osteoblasts, firefly luciferase, cherry-picked, dose response (AID 624132).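 Further: firefly luciferase luminescence from reporter carrying the Shn3 3'UTR in osteoblasts.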 The format is functional.
A short description of assay [7]: THP-1 cell cytotoxicity, dose response, cytotoxicity control for non-replicating M. tuberculosis project (AID 489025). The assay is classed as functional.
The next assay in a line: cells. The format is functional.
Assay [8] can be described thus: loss of viability in HepG2 cells – cell-based, CellTiter-Glo, cherry-picked, cytotoxicity control for Shn3 inhibitor project, dose response (AID 624134). The assay is classed as functional. For orientation: Cellular ATP, detected with luciferase, serves as a proxy for viable cell number.
Assay [9] has as its target T2, Microphthalmia-associated transcription factor (Homo sapiens, UniProt O75030).
T2 sequence (O75030 whole entry): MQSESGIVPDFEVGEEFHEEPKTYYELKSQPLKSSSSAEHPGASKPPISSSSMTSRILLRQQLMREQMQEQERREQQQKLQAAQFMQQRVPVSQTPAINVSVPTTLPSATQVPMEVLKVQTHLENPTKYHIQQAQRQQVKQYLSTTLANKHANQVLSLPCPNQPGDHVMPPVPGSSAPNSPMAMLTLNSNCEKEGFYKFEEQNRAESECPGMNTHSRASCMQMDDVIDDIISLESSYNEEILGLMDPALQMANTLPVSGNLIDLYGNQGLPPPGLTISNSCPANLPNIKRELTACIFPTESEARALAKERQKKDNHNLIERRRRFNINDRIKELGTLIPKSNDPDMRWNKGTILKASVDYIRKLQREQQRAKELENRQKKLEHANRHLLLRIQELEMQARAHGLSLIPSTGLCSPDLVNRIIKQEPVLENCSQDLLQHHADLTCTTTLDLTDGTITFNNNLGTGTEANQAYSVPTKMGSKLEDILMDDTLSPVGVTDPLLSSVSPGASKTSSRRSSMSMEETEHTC
In words: reducers of TRPM1 reporter luminescence, concentration series – cell-based, SK-MEL-5, cherry-picked, set 3, MITF inhibitor project, dose response (AID 493073).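 Further: SK-MEL-5 melanoma cells with luciferase driven by the MITF target TRPM1 promoter.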 The format is functional.

Assay [10] concerns the target Delta-type opioid receptor (Homo sapiens, UniProt P41143). In words: Counterscreen for agonists of heterodimerization of the mu 1 (OPRM1) and delta 1 (OPRD1) opioid receptors: Luminescence-based cell-based high throughput dose response assay to identify agonists of OPRD1 homodimerization. [Related pubchem assays (depositor defined):AID504326, AID504355, AID504692, AID504904, AID504905]. The assay is classed as functional.

For another assay, the target named is Mu-type opioid receptor (Homo sapiens, UniProt P35372). Briefly: Counterscreen for agonists of heterodimerization of the mu 1 (OPRM1) and delta 1 (OPRD1) opioid receptors: Luminescence-based cell-based high throughput dose response assay to identify agonists of OPRM1 homodimerization. The assay is classed as functional.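 Further: U2OS cells expressing OPRM1 and beta-arrestin as split beta-galactosidase partners.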
The target in assay [11] is 5-hydroxytryptamine receptor 5A (Homo sapiens, UniProt P47898). Briefly: Counterscreen for agonists of OPRM1-OPRD1 heterodimerization: luminescence-based cell-based high throughput dose response assay to identify agonists of 5-hydroxytryptamine (serotonin) 5A receptor (HTR5A). [Related pubchem assays (depositor defined):AID504326, AID504355, AID504692, AID504904, AID504905]. The assay is classed as functional.

The target in assay [12] is T3, Short transient receptor potential channel 4 (Mus musculus, UniProt Q9QUQ5).
T3 sequence (Q9QUQ5 whole entry): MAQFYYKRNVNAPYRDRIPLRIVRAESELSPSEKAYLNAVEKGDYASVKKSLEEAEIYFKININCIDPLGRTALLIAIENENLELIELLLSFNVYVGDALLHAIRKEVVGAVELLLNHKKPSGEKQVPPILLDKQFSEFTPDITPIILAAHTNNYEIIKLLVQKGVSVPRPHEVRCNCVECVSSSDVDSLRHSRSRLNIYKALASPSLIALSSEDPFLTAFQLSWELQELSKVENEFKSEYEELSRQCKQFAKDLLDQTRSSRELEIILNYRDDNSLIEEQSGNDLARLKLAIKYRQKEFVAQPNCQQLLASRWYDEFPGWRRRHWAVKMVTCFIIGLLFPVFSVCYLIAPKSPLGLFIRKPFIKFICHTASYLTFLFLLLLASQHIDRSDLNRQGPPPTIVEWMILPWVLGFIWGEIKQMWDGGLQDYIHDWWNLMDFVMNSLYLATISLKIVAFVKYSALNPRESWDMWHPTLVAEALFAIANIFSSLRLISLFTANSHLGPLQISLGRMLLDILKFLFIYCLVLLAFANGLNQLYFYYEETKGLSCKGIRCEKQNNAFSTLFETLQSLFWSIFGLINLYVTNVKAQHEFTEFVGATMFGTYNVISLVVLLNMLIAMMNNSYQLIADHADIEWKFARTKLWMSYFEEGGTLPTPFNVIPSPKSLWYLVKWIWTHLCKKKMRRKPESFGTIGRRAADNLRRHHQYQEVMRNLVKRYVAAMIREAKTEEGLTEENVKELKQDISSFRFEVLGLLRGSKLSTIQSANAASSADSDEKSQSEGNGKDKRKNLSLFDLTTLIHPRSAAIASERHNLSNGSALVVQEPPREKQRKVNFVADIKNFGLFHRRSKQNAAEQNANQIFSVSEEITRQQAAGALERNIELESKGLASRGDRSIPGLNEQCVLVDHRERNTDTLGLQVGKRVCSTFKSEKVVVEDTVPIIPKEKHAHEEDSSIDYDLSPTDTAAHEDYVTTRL
Briefly: calcium entry via TRPC4 opening agents – cell-based, HEK293 TRPC4/mu-opioid, Fluo-4 calcium, dose response (AID 434937). The format is functional.

The nature of assay [13]: Trypanosoma cruzi growth suppression in host cells – NIH3T3 host cells, beta-gal luminescence, confirmation (AID 2044).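 Further: intracellular parasites grown in NIH/3T3 mouse fibroblasts as host cells; luminescent beta-galactosidase reporter signal from transgenic T. cruzi replicating inside host cells; inhibitors lower the luminescence signal.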 The format is functional, cell-based.
In assay [14] the target is C-C chemokine receptor type 6 (Homo sapiens, UniProt P51684). Briefly: antagonism of CCR6 beta-arrestin recruitment – cell-based, luminescent beta-arrestin readout, dose response (AID 504728). The assay is classed as functional. (In general: Arrestin recruitment assays detect the binding of arrestin to an activated receptor.)
The next assay deals with Beta-galactosidase (Escherichia coli, UniProt Q8VNN2). Briefly: detection-enzyme interference by beta-gal modulators – biochemical, E. coli enzyme, set 3, artefact control for CCR6 antagonist project, dose response (AID 504712). The format is functional.
The test system of another assay is INS1. Briefly: INS-1E survival protection against cytokine death – cell-based, luminescence, retest, dose response (AID 449756).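 Further: cell death triggered by IL-1 beta plus TNF-alpha plus IFN-gamma mixture; protective hits raise ATP signal compared with cytokine alone wells.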 To be noted: Rattus norvegicus. The format is functional.
Assay [15] deals with T4, Heat shock factor protein 1 (Mus musculus, UniProt P38532).
T4 sequence (P38532 whole entry): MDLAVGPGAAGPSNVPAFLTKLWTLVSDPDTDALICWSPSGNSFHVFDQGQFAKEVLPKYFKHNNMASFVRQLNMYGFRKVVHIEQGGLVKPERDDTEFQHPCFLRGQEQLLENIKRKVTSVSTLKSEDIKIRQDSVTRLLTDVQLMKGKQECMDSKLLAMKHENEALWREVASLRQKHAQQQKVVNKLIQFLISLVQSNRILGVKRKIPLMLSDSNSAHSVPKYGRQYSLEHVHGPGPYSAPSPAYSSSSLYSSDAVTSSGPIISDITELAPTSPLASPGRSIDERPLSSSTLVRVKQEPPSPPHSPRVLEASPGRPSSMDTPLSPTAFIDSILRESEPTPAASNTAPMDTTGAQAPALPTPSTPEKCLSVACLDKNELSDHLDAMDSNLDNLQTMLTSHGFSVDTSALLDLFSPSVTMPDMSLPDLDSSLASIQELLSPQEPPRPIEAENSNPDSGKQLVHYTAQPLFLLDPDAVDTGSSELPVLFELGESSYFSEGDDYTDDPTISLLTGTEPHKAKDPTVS
Briefly: decrease of HSF1-responsive luciferase luminescence – cell-based, NIH3T3, dose retest, confirmation (AID 2382).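 Further: NIH3T3 fibroblasts with HSF1-driven luciferase reporter stressed by proteasome inhibitor MG132; luminescence from HSF1-driven luciferase expression after 8 hours of MG132 stress.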 The assay is classed as functional.

Assay [16] is described as follows: NIH3T3 cell viability loss – ATP luminescence, mouse fibroblasts, counter-screen, dose response (AID 2010).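 Further: cells exposed to compound for about 90 hours before reading.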 The format is functional, cell-based.
Assay [17] can be described thus: general cell-killing toxicity readout – plate reader, dry powder samples, cytotoxicity control for PAX8 inhibitor project, dose response (AID 743021). The assay is classed as functional, cell-based.
Assay [18] is described as follows: Luminescence Cell-Based Dose Retest to Confirm Inhibitors of Cancer Stem Cells. [Related pubchem assays (depositor defined):AID2717, AID2721]. The assay is classed as functional. The following applies: Homo sapiens.
The next assay deals with Paired box protein Pax-8 (Homo sapiens, UniProt Q06710). In words: PAX8 transcriptional activity inhibition in RMG-I – RMG-I cells, luciferase, cherry-pick, dose response (AID 687027).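 Further: luciferase reporter driven by Pax8 target thyroperoxidase promoter measured by SteadyGlo luminescence.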 The format is functional, cell-based.

Activity calls are given as the source filed them. Where only a bound is given, the exact number is not on record here.

Sequence of 5-hydroxytryptamine receptor 5A (P47898 whole entry): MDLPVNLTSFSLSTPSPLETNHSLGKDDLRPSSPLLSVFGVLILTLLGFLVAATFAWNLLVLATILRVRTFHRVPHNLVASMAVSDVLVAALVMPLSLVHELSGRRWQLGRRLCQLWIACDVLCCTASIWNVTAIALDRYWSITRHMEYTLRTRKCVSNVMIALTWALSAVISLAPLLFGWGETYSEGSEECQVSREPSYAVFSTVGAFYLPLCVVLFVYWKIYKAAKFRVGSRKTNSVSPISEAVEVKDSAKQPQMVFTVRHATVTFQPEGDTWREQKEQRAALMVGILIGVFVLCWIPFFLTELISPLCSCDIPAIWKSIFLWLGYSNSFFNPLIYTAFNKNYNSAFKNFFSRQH
Sequence of Delta-type opioid receptor (P41143 whole entry): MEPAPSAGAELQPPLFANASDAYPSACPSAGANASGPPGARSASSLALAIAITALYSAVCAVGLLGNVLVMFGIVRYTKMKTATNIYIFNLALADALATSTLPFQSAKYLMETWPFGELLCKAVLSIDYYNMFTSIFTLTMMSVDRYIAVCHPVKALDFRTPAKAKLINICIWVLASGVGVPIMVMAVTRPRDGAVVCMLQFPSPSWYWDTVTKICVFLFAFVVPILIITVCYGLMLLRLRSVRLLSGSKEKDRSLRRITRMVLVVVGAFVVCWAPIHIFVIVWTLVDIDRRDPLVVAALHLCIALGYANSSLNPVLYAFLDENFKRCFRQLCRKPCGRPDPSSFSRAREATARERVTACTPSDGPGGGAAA
Sequence of C-C chemokine receptor type 6 (P51684 whole entry): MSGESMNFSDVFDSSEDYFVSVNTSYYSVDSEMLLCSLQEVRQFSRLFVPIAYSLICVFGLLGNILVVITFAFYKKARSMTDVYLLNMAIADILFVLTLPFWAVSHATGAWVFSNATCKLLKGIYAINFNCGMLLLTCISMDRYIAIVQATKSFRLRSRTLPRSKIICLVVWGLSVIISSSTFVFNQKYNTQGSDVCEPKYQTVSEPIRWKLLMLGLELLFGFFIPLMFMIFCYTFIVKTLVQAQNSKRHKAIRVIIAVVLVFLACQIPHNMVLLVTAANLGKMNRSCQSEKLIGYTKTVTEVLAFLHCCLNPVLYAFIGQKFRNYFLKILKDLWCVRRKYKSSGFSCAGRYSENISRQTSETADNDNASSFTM
Sequence of Mu-type opioid receptor (P35372 whole entry): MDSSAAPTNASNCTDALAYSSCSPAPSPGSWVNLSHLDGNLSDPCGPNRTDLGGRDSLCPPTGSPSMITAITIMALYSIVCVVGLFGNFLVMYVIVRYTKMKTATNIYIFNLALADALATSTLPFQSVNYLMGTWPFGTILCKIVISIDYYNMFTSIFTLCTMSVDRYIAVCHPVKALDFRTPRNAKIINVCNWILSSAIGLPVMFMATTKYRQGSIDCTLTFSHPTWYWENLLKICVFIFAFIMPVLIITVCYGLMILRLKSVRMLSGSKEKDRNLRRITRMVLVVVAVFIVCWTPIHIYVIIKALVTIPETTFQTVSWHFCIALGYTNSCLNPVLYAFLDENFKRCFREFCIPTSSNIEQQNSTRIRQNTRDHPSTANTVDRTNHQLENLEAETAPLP
Sequence of Beta-galactosidase (Q8VNN2 whole entry): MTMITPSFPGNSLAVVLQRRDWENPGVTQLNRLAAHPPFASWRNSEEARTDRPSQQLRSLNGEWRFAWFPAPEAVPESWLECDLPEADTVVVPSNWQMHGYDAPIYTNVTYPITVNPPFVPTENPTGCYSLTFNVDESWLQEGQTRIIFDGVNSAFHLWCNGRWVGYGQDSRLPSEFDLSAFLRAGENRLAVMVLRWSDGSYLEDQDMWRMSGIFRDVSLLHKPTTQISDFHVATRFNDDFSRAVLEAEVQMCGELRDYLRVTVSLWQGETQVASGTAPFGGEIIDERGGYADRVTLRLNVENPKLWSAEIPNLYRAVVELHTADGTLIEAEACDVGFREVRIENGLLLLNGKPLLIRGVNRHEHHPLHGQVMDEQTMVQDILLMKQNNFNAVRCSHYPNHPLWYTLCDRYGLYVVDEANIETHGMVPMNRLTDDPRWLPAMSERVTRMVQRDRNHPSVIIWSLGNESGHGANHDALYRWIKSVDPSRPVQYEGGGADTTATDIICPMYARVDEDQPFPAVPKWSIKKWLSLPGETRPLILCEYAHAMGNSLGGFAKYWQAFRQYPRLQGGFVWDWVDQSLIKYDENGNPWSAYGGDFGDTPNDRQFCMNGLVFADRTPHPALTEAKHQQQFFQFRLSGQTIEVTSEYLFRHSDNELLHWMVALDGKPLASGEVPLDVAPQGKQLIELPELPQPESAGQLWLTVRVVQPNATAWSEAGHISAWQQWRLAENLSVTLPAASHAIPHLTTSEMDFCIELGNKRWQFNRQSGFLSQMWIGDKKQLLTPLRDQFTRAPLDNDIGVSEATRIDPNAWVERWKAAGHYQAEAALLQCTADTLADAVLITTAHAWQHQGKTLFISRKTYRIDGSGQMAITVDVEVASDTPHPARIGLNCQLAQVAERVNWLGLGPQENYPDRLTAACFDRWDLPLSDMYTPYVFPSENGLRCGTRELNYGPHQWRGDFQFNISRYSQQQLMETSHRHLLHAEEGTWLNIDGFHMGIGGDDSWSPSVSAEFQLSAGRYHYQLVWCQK
Sequence of Paired box protein Pax-8 (Q06710 whole entry): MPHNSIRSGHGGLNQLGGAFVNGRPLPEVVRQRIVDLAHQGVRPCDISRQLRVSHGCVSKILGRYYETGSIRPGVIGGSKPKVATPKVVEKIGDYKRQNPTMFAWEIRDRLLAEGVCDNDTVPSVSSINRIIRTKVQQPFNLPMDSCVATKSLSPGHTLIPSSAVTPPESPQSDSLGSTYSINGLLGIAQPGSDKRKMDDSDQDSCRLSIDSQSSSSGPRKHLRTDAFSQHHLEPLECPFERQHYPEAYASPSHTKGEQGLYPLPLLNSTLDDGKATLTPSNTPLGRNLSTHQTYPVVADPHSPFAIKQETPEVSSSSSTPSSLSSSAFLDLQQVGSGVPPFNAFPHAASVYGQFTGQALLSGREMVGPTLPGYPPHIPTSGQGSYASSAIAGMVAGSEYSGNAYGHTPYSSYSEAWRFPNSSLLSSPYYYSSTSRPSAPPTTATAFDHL

One may read the IC50 as the concentration needed to halve the response being measured. The AC50 is the concentration giving half of the maximal activity seen. Take `N=c1n(Cc2ccc(Cl)cc2)c2ccccc2n1CC(O)COc1ccccc1` (stereo unspecified): the IC50 in [1] was 15 µM (active); in the assay “cells”, 14.1 µM (active). The AC50 in [2] is 3.61 µM (active); in the assay with A-375, 13.9 µM (active); in [6], 2.34 µM (active); in [8] it was 14.2 µM (active); in assay [9], 9.25 µM (active). Also, the CC50 was 11.6 µM (active) in assay [3], 8.02 µM (active) in assay [4], 11.8 µM (active) in [5] and 11.8 µM (active) in assay [7].

As a reminder, the EC50 is the midpoint of the concentration-response curve. `COc1ccc(C(CNC(=O)c2ccc(S(=O)(=O)N(C)C)cc2)N(C)C)cc1` (stereo unspecified): the EC50 in [10] is 85.6 µM (inactive); on Mu-type opioid receptor, > 92.5 µM (inactive); in assay [11], > 92.5 µM (inactive); in assay [12], 1.5 µM (active).

With `Cc1ccc(C(=O)N/C(=C\c2ccc(-c3ccc(Br)cc3)o2)C(=O)NCCCN(C)C)cc1`, the EC50 in [13] is 1.56 µM (active); in [15], 24.1 µM (active); in assay [16], > 30 µM (not active). The IC50 in [14] was 24.6 µM (inactive); at Beta-galactosidase it was > 66.6 µM (inactive). Further, the AC50 in the assay on A-375 is 17.7 µM (active); with INS1, 7.33 µM (active); in assay [9] it was 6.84 µM (active); in assay [17], 61.2 µM (active); in assay [18], 2.81 µM (active); on Paired box protein Pax-8 it was 17.4 µM (active).

Values taken from ChEMBL document CHEMBL1201862, “PubChem BioAssay data set” (2004).
